Data on four compounds can be found in article PMC3914206.

What all share (assay type): binding
What all share (parameters): KINOMEscan: ABL1(F317L)-phosphorylated / KINOMEscan: ABL1(H396P)-nonphosphorylated / KINOMEscan: ABL1(H396P)-phosphorylated / KINOMEscan: ABL1(M351T)-phosphorylated / KINOMEscan: ABL1(T315I)-phosphorylated / KINOMEscan: ABL1-nonphosphorylated / KINOMEscan: ABL1-phosphorylated / KINOMEscan: ACVR2A / KINOMEscan: ACVR2B / KINOMEscan: ADCK3 / KINOMEscan: ADCK4 / KINOMEscan: AKT1 / KINOMEscan: AKT3 / KINOMEscan: ALK / KINOMEscan: ARK5 / KINOMEscan: AURKA / KINOMEscan: AURKC / KINOMEscan: BIKE / KINOMEscan: BMPR1A / KINOMEscan: BMPR1B / KINOMEscan: BMX / KINOMEscan: BRK / KINOMEscan: BRSK1 / KINOMEscan: BRSK2 / KINOMEscan: CAMK1 / KINOMEscan: CAMK1D / KINOMEscan: CAMK1G / KINOMEscan: CAMK2A / KINOMEscan: CAMK2B / KINOMEscan: AAK1 / KINOMEscan: CAMK2D / KINOMEscan: CAMK2G / KINOMEscan: ABL1(F317I)-nonphosphorylated / KINOMEscan: ABL1(F317I)-phosphorylated / KINOMEscan: ABL1(F317L)-nonphosphorylated: unit: % Ctrl

The target in assay [1] is T1, panel of 442 kinases (Homo sapiens, UniProt Q06418).
T1 construct: purchased KINOMEscan
T1 sequence (Q06418 41-890): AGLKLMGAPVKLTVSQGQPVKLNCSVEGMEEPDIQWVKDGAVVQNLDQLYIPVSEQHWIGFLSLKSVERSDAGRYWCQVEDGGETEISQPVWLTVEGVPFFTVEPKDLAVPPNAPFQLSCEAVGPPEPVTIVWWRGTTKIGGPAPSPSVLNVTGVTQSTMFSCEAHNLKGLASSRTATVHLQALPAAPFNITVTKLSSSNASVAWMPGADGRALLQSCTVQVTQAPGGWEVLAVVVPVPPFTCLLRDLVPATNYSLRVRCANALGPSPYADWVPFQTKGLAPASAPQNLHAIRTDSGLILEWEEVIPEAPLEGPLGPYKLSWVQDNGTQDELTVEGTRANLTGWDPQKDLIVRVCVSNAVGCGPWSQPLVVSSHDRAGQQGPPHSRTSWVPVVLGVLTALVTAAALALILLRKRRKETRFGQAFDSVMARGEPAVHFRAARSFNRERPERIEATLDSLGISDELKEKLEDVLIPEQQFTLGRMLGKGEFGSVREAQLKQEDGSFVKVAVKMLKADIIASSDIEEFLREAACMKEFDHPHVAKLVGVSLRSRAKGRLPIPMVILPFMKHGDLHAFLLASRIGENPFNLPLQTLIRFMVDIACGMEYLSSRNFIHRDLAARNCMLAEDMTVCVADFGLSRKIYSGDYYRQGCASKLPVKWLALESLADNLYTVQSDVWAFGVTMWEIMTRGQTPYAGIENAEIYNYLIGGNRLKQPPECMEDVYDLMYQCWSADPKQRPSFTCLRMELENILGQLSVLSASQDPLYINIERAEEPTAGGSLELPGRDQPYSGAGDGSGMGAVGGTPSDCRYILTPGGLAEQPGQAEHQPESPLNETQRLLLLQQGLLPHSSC
The note with it: kinase TYRO3; compound concentration 10 µM. An excerpt:
(§1) We assessed the selectivity of members of this scaffold using the KINOMEscan methodology across a near comprehensive panel of 442 kinases [[18,27]].

Assay [2] deals with T2, panel of 442 kinases (Homo sapiens, UniProt Q9UK32).
T2 construct: purchased KINOMEscan
The note with it: compound concentration 10 µM; for % Ctrl, RSK4(Kin.Dom.1-N-terminal): kinase RSK4(Kin.Dom.1-N-terminal); for % Ctrl, RSK4(Kin.Dom.2-C-terminal): kinase RSK4(Kin.Dom.2-C-terminal).
From the text: as §1

Assay [3] deals with T3, panel of 442 kinases (Homo sapiens, UniProt Q9UM73).
T3 construct: purchased KINOMEscan
To be noted: Compound Concentration 10 µM.
From the text: as §1

T2 sequence (Q9UK32 whole entry): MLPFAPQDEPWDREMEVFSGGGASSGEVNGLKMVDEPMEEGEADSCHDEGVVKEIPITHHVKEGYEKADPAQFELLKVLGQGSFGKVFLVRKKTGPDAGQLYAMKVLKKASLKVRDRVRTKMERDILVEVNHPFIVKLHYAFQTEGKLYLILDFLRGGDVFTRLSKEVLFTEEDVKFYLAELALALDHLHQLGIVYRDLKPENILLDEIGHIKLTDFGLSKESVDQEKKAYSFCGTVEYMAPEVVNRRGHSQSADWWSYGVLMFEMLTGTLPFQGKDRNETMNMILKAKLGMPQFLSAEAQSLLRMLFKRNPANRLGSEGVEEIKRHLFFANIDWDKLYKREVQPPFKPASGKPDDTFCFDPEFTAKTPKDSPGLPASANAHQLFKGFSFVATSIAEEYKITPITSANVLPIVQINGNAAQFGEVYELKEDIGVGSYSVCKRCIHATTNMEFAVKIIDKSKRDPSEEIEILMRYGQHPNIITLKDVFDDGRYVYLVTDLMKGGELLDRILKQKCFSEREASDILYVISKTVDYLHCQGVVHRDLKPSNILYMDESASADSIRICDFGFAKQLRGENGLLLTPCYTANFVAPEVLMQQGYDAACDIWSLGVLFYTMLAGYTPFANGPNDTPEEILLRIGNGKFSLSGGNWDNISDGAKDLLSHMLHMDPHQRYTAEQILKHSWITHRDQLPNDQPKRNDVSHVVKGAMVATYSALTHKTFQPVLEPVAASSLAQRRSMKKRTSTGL
T3 sequence (Q9UM73 19-1620): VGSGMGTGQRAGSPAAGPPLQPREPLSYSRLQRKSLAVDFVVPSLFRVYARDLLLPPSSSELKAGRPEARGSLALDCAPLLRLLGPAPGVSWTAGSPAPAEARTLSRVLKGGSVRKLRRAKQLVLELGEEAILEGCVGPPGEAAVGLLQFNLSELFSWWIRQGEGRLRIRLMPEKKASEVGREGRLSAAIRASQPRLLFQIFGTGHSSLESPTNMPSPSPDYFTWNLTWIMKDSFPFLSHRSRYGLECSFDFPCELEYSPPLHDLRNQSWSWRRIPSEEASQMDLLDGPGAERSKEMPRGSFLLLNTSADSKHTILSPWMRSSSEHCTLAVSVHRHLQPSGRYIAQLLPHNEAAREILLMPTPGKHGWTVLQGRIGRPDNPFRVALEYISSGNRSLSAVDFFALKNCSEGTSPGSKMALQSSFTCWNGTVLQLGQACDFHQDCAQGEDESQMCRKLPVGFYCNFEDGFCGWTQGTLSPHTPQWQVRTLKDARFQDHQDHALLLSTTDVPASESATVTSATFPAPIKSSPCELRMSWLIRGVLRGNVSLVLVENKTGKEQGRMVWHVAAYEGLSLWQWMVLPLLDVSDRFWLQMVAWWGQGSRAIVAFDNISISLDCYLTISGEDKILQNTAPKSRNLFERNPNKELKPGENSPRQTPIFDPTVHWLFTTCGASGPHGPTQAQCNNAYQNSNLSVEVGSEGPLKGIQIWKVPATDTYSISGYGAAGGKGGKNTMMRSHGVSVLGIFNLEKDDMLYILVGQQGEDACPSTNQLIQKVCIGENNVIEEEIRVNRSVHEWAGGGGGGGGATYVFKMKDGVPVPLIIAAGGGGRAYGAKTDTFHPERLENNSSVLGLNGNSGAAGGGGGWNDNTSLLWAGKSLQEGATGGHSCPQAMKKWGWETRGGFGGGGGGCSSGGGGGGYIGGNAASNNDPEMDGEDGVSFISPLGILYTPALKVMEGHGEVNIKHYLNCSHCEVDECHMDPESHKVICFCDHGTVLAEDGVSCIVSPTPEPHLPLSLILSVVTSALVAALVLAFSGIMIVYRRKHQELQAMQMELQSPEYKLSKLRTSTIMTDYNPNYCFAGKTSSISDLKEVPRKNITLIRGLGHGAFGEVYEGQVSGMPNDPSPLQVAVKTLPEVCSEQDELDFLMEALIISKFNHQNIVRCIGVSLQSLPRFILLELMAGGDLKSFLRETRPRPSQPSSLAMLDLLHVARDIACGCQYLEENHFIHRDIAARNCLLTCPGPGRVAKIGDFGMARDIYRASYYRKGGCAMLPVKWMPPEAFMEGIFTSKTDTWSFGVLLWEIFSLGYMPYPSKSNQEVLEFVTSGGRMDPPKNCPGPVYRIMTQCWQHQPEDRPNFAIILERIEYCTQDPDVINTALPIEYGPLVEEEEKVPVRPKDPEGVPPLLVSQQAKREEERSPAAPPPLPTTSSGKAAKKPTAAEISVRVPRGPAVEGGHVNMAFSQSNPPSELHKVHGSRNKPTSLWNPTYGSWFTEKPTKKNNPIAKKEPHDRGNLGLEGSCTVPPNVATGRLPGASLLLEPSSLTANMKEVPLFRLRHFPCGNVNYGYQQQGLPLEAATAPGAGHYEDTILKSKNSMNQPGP

On to `COc1cc(C(=O)N2CCC(N3CCN(C)CC3)CC2)ccc1Nc1ncc2c(n1)N(C1CCCC1)c1ccccc1C(=O)N2C` [Compound 25, 11-cyclopentyl-2-((2-methoxy-4-(4-(4-methylpiperazin-1-yl)piperidine-1-carbonyl)phenyl)amino)-5-methyl-5H-benzo[e]pyrimido[5,4-b][1,4]diazepin-6(11H)-one], for which the “% Ctrl, TYRO3” value on panel of 442 kinases [1] was determined as 100 % Ctrl. In addition, on panel of 442 kinases [2], the “% Ctrl, RSK4(Kin.Dom.1-N-terminal)” value is reported as 100 % Ctrl and the “% Ctrl, RSK4(Kin.Dom.2-C-terminal)” value is listed as 93 % Ctrl. For the same compound, the “KINOMEscan: ALK” value on panel of 442 kinases [3] is 15.

Turning to `COc1cc(C(=O)N2CCC(N3CCN(C)CC3)CC2)ccc1Nc1ncc2c(n1)N1CCc3cccc(c31)C(=O)N2C` [Compound 24], on panel of 442 kinases [1], the “% Ctrl, TYRO3” value is reported as 100 % Ctrl. At panel of 442 kinases [2], the “% Ctrl, RSK4(Kin.Dom.1-N-terminal)” value stood at 100 % Ctrl and the “% Ctrl, RSK4(Kin.Dom.2-C-terminal)” value is 5.2 % Ctrl. The “KINOMEscan: ALK” value on panel of 442 kinases [3] was 31.

With `COc1cc(C(=O)N2CCC(N3CCN(C)CC3)CC2)ccc1Nc1ncc2c(n1)N(C)c1ccccc1C(=O)N2C` [15 (LRRK2-IN-1)], the “% Ctrl, TYRO3” value on panel of 442 kinases [1] is given as 100 % Ctrl. For the same compound, at panel of 442 kinases [2], the “% Ctrl, RSK4(Kin.Dom.1-N-terminal)” value is reported as 92 % Ctrl and the “% Ctrl, RSK4(Kin.Dom.2-C-terminal)” value came to 2.2 % Ctrl. The “KINOMEscan: ALK” value on panel of 442 kinases [3] was 13.

In the case of `CCOc1cc(C(=O)N2CCC(N3CCN(C)CC3)CC2)ccc1Nc1ncc2c(n1)N(C1CCCC1)c1ccccc1C(=O)N2C` [Compound 26], the “% Ctrl, TYRO3” value on panel of 442 kinases [1] is on record as 100 % Ctrl. Also, on panel of 442 kinases [2], the “% Ctrl, RSK4(Kin.Dom.1-N-terminal)” value is given as 100 % Ctrl and the “% Ctrl, RSK4(Kin.Dom.2-C-terminal)” value came out at 98 % Ctrl. The “KINOMEscan: ALK” value on panel of 442 kinases [3] was found to be 21.
